Laboratory results: ChEMBL document CHEMBL3808389, “Stable and biocompatible cystine knot peptides from the marine sponge Asteropus sp” (Bioorg Med Chem, 2016)
Where a SMILES comes first, the peptide text is derived from it. Bridges are numbered along the chain shown (N, C = ends). [ ]: non-standard residue; d: D form. pGlu = O=C1CC[C@@H](C(=O)O)N1

Legend:
Mus musculus [1] = test: Toxicity in mouse assessed as appearance changes at 40 mg/kg, ip after 7 days; format: organism-based; details: in vivo, 168 h
RAW264.7 [2] = test: Cytotoxicity against mouse RAW264.7 cells assessed as cell viability at 10 or 40 ug/ml measured after 24 hrs by WST assay; format: cell-based; details: raw264.7, 24 h
Mus musculus [3] = test: Toxicity in mouse assessed as convulusion at 40 mg/kg, ip after 12 hrs; format: organism-based; details: in vivo
RAW264.7 [4] = test: Toxicity in mouse RAW264.7 cells assessed as in induction of Nitric oxide production at 10 or 40 ug/ml measured after 24 hrs by Griess reaction method; format: cell-based; details: raw264.7, 24 h
Mus musculus [5] = test: Toxicity in mouse assessed as stiff tail at 40 mg/kg, ip after 12 hrs; format: organism-based; details: in vivo
[6] = Toxicity in human RBC assessed as hemolytic activity at 50 uM measured after 1 hr by spectrophotometric analysis; format: cell-based, Erythrocyte; details: erythrocyte, 1 h, 50 µM
Mus musculus [7] = test: Toxicity in mouse assessed as mortality at 40 mg/kg, ip after 7 days; format: organism-based; details: in vivo, 168 h
[8] = Cytotoxicity against rat Ac2F cells at 30 uM; format: cell-based
[9] = Thermal stability in Tris-acetate-EDTA buffer of pH 8.3 at 100 degC measured upto 12 hrs by reverse-phase HPLC analysis; format: physicochemical; details: pH 8.3, 12 h
Mus musculus [10] = test: Toxicity in mouse assessed as behavior changes at 40 mg/kg, ip after 7 days; format: organism-based; details: in vivo, 168 h
Mus musculus [11] = test: Toxicity in mouse assessed as paralysis at 40 mg/kg, ip after 12 hrs; format: organism-based; details: in vivo
[12] = Toxicity in Thamnaconus modestus RBC assessed as hemolytic activity at 0.08 to 50 uM measured after 1 hr by spectrophotometric analysis; format: cell-based; details: erythrocyte
Mus musculus [13] = test: Toxicity in mouse assessed as aggressiveness at 40 mg/kg, ip after 12 hrs; format: organism-based; details: in vivo
[14] = Toxicity in human RBC assessed as hemolytic activity at 2 uM measured after 1 hr by spectrophotometric analysis; format: cell-based; details: erythrocyte

SMILES	Activity (Mus musculus [1])	Activity (RAW264.7 [2])	Activity (Mus musculus [3])	Activity (RAW264.7 [4])	Activity (Mus musculus [5])	Activity [6]	Activity (Mus musculus [7])	Activity [8]	Stability [9]	Activity (Mus musculus [10])	Activity (Mus musculus [11])	Activity [12]	Activity (Mus musculus [13])	Activity [14]
CC[C@H](C)[C@H](NC(=O)[C@@H](NC(=O)[C@H](Cc1ccc(O)cc1)NC(=O)[C@@H]1CSSC[C@@H]2NC(=O)[C@@H]3CCCN3C(=O)[C@H](CC(N)=O)NC(=O)[C@H](Cc3ccccc3)NC(=O)[C@H](CCC(=O)O)NC(=O)[C@H](C(C)C)NC(=O)[C@H](CC(=O)O)NC(=O)[C@@H]3CSSC[C@H](NC(=O)[C@H]([C@@H](C)O)NC(=O)[C@H](CC(C)C)NC(=O)[C@@H]4CCCN4C(=O)[C@@H]4CCCN4C(=O)[C@H](CSSC[C@H](NC(=O)[C@H](CC(=O)O)NC(=O)[C@@H]4CCC(=O)N4)C(=O)N4CCC[C@H]4C(=O)NCC(=O)N[C@@H](CCC(=O)O)C(=O)NCC(=O)N[C@@H](CCC(=O)O)C(=O)N[C@@H](CCC(N)=O)C(=O)N3)NC2=O)C(=O)N[C@@H]([C@@H](C)CC)C(=O)N2CCC[C@H]2C(=O)NCC(=O)N[C@@H](CC(=O)O)C(=O)N2CCC[C@H]2C(=O)N[C@@H](Cc2ccc(O)cc2)C(=O)NCC(=O)N[C@@H]([C@@H](C)CC)C(=O)N1)[C@@H](C)CC)C(=O)O ([pGlu]DCPGEGEQCDVEFNPCCPPLTCIPGDPYGICYII-OH; disulfide 3-18, 10-23, 17-32)	Non-toxic	Non-toxic	Non-toxic	Non-toxic	Non-toxic	Non-toxic	Non-toxic	Non-toxic	Stable	Non-toxic	Non-toxic	Non-toxic	Non-toxic	–
CC[C@H](C)[C@H](NC(=O)CN)C(=O)NCC(=O)N[C@@H](C)C(=O)N[C@H](C(=O)N[C@@H](CC(C)C)C(=O)N[C@@H](CCCCN)C(=O)N[C@H](C(=O)N[C@@H](CC(C)C)C(=O)N[C@H](C(=O)N[C@H](C(=O)NCC(=O)N[C@@H](CC(C)C)C(=O)N1CCC[C@H]1C(=O)N[C@@H](C)C(=O)N[C@@H](CC(C)C)C(=O)N[C@H](C(=O)N[C@@H](CO)C(=O)N[C@@H](Cc1c[nH]c2ccccc12)C(=O)N[C@H](C(=O)N[C@@H](CCCCN)C(=O)N[C@@H](CCCNC(=N)N)C(=O)N[C@@H](CCCCN)C(=O)N[C@@H](CCCNC(=N)N)C(=O)N[C@@H](CCC(N)=O)C(=O)N[C@@H](CCC(N)=O)C(N)=O)[C@@H](C)CC)[C@@H](C)CC)[C@@H](C)O)[C@@H](C)O)C(C)C)C(C)C [MELITTIN]	–	–	–	–	–	–	–	–	–	–	–	–	–	Toxic
